Experimental data taken from the NIST ThermoML archive (doi:10.1016/j.jct.2003.11.008).
± gives the expanded uncertainty stated by the source.

Assays:
[1] = excess molar enthalpy (molar enthalpy of mixing); xn = mol fraction of the nth substance listed; details: 318.15 K, 101.3 kPa, Liquid
[2] = xn = mol fraction of the nth substance listed; details: 318.15 K, 101.3 kPa, Liquid

## CCCCCCCCCCC [undecane] + COC(C)=O
[1]; x2 = 0.1
  excess molar enthalpy: 0.161 ± 0.00287 kcal/mol
[1]; x2 = 0.203
  excess molar enthalpy: 0.297 ± 0.00502 kcal/mol
[1]; x2 = 0.2975
  excess molar enthalpy: 0.406 ± 0.00669 kcal/mol
[1]; x2 = 0.3707
  excess molar enthalpy: 0.475 ± 0.00765 kcal/mol
[1]; x2 = 0.4315
  excess molar enthalpy: 0.516 ± 0.00837 kcal/mol
[1]; x2 = 0.4836
  excess molar enthalpy: 0.538 ± 0.0086 kcal/mol
[1]; x2 = 0.528
  excess molar enthalpy: 0.547 ± 0.00884 kcal/mol
[1]; x2 = 0.5612
  excess molar enthalpy: 0.549 ± 0.00884 kcal/mol
[1]; x2 = 0.5935
  excess molar enthalpy: 0.548 ± 0.00884 kcal/mol
[1]; x2 = 0.6178
  excess molar enthalpy: 0.544 ± 0.00884 kcal/mol
[1]; x2 = 0.6538
  excess molar enthalpy: 0.533 ± 0.0086 kcal/mol
[1]; x2 = 0.6915
  excess molar enthalpy: 0.517 ± 0.00837 kcal/mol
[1]; x2 = 0.7306
  excess molar enthalpy: 0.494 ± 0.00813 kcal/mol
[1]; x2 = 0.769
  excess molar enthalpy: 0.463 ± 0.00765 kcal/mol
[1]; x2 = 0.8102
  excess molar enthalpy: 0.418 ± 0.00693 kcal/mol
[1]; x2 = 0.851
  excess molar enthalpy: 0.37 ± 0.00621 kcal/mol
[1]; x2 = 0.888
  excess molar enthalpy: 0.299 ± 0.00502 kcal/mol
[1]; x2 = 0.9283
  excess molar enthalpy: 0.223 ± 0.00382 kcal/mol
[1]; x2 = 0.9664
  excess molar enthalpy: 0.124 ± 0.00237 kcal/mol
[2]; x2 = 0.1232
  excess molar volume: 7.69e-07 ± 1.9e-08 m3/mol
[2]; x2 = 0.2463
  excess molar volume: 1.347e-06 ± 2.2e-08 m3/mol
[2]; x2 = 0.3266
  excess molar volume: 1.58e-06 ± 2.3e-08 m3/mol
[2]; x2 = 0.3942
  excess molar volume: 1.734e-06 ± 2.4e-08 m3/mol
[2]; x2 = 0.4679
  excess molar volume: 1.879e-06 ± 2.4e-08 m3/mol
[2]; x2 = 0.5333
  excess molar volume: 1.922e-06 ± 2.4e-08 m3/mol
[2]; x2 = 0.5823
  excess molar volume: 1.908e-06 ± 2.4e-08 m3/mol
[2]; x2 = 0.6365
  excess molar volume: 1.851e-06 ± 2.4e-08 m3/mol
[2]; x2 = 0.68
  excess molar volume: 1.765e-06 ± 2.4e-08 m3/mol
[2]; x2 = 0.7221
  excess molar volume: 1.676e-06 ± 2.3e-08 m3/mol
[2]; x2 = 0.76
  excess molar volume: 1.554e-06 ± 2.3e-08 m3/mol
[2]; x2 = 0.7954
  excess molar volume: 1.415e-06 ± 2.2e-08 m3/mol
[2]; x2 = 0.8183
  excess molar volume: 1.337e-06 ± 2.2e-08 m3/mol
[2]; x2 = 0.8875
  excess molar volume: 9.9e-07 ± 2e-08 m3/mol
[2]; x2 = 0.935
  excess molar volume: 6.43e-07 ± 1.8e-08 m3/mol
[2]; x2 = 0.9683
  excess molar volume: 3.52e-07 ± 1.7e-08 m3/mol

## CCCCOC(C)=O [butyl ethanoate] + CCCCCCCCC
[1]; x1 = 0.0779
  excess molar enthalpy: 0.0816 ± 0.00165 kcal/mol
[1]; x1 = 0.1485
  excess molar enthalpy: 0.146 ± 0.00263 kcal/mol
[1]; x1 = 0.2301
  excess molar enthalpy: 0.2 ± 0.00359 kcal/mol
[1]; x1 = 0.3059
  excess molar enthalpy: 0.237 ± 0.00406 kcal/mol
[1]; x1 = 0.3775
  excess molar enthalpy: 0.261 ± 0.0043 kcal/mol
[1]; x1 = 0.442
  excess molar enthalpy: 0.271 ± 0.00454 kcal/mol
[1]; x1 = 0.5
  excess molar enthalpy: 0.272 ± 0.00454 kcal/mol
[1]; x1 = 0.5519
  excess molar enthalpy: 0.266 ± 0.00454 kcal/mol
[1]; x1 = 0.5963
  excess molar enthalpy: 0.256 ± 0.0043 kcal/mol
[1]; x1 = 0.6435
  excess molar enthalpy: 0.243 ± 0.00406 kcal/mol
[1]; x1 = 0.6936
  excess molar enthalpy: 0.227 ± 0.00382 kcal/mol
[1]; x1 = 0.7461
  excess molar enthalpy: 0.203 ± 0.00359 kcal/mol
[1]; x1 = 0.8009
  excess molar enthalpy: 0.172 ± 0.00311 kcal/mol
[1]; x1 = 0.8533
  excess molar enthalpy: 0.134 ± 0.00239 kcal/mol
[1]; x1 = 0.9067
  excess molar enthalpy: 0.0904 ± 0.00177 kcal/mol
[1]; x1 = 0.9568
  excess molar enthalpy: 0.0449 ± 0.00108 kcal/mol
[2]; x1 = 0.0761
  excess molar volume: 2.63e-07 ± 1.7e-08 m3/mol
[2]; x1 = 0.1325
  excess molar volume: 4.29e-07 ± 1.7e-08 m3/mol
[2]; x1 = 0.1914
  excess molar volume: 5.63e-07 ± 1.8e-08 m3/mol
[2]; x1 = 0.2533
  excess molar volume: 6.69e-07 ± 1.9e-08 m3/mol
[2]; x1 = 0.3151
  excess molar volume: 7.6e-07 ± 1.9e-08 m3/mol
[2]; x1 = 0.3713
  excess molar volume: 8.09e-07 ± 1.9e-08 m3/mol
[2]; x1 = 0.4229
  excess molar volume: 8.37e-07 ± 1.9e-08 m3/mol
[2]; x1 = 0.4749
  excess molar volume: 8.55e-07 ± 1.9e-08 m3/mol
[2]; x1 = 0.5222
  excess molar volume: 8.55e-07 ± 1.9e-08 m3/mol
[2]; x1 = 0.5765
  excess molar volume: 8.31e-07 ± 1.9e-08 m3/mol
[2]; x1 = 0.6275
  excess molar volume: 7.98e-07 ± 1.9e-08 m3/mol
[2]; x1 = 0.6744
  excess molar volume: 7.55e-07 ± 1.9e-08 m3/mol
[2]; x1 = 0.7062
  excess molar volume: 7.07e-07 ± 1.9e-08 m3/mol
[2]; x1 = 0.8023
  excess molar volume: 5.38e-07 ± 1.8e-08 m3/mol
[2]; x1 = 0.8838
  excess molar volume: 3.43e-07 ± 1.7e-08 m3/mol
[2]; x1 = 0.9444
  excess molar volume: 1.75e-07 ± 1.6e-08 m3/mol

## CCCCCCCCCCC [undecane] + CCCOC(C)=O
[1]; x2 = 0.0814
  excess molar enthalpy: 0.103 ± 0.00198 kcal/mol
[1]; x2 = 0.1501
  excess molar enthalpy: 0.173 ± 0.00311 kcal/mol
[1]; x2 = 0.2265
  excess molar enthalpy: 0.24 ± 0.00406 kcal/mol
[1]; x2 = 0.2928
  excess molar enthalpy: 0.288 ± 0.00478 kcal/mol
[1]; x2 = 0.3534
  excess molar enthalpy: 0.32 ± 0.00526 kcal/mol
[1]; x2 = 0.4082
  excess molar enthalpy: 0.341 ± 0.00574 kcal/mol
[1]; x2 = 0.4582
  excess molar enthalpy: 0.354 ± 0.00598 kcal/mol
[1]; x2 = 0.5031
  excess molar enthalpy: 0.358 ± 0.00598 kcal/mol
[1]; x2 = 0.5439
  excess molar enthalpy: 0.358 ± 0.00598 kcal/mol
[1]; x2 = 0.5841
  excess molar enthalpy: 0.354 ± 0.00598 kcal/mol
[1]; x2 = 0.6226
  excess molar enthalpy: 0.345 ± 0.00574 kcal/mol
[1]; x2 = 0.6441
  excess molar enthalpy: 0.332 ± 0.0055 kcal/mol
[1]; x2 = 0.6911
  excess molar enthalpy: 0.312 ± 0.00526 kcal/mol
[1]; x2 = 0.7407
  excess molar enthalpy: 0.285 ± 0.00478 kcal/mol
[1]; x2 = 0.7924
  excess molar enthalpy: 0.25 ± 0.0043 kcal/mol
[1]; x2 = 0.8458
  excess molar enthalpy: 0.198 ± 0.00335 kcal/mol
[1]; x2 = 0.8971
  excess molar enthalpy: 0.141 ± 0.00263 kcal/mol
[1]; x2 = 0.9495
  excess molar enthalpy: 0.078 ± 0.0016 kcal/mol
[2]; x2 = 0.0791
  excess molar volume: 3.43e-07 ± 1.7e-08 m3/mol
[2]; x2 = 0.1544
  excess molar volume: 6e-07 ± 1.8e-08 m3/mol
[2]; x2 = 0.2306
  excess molar volume: 8.2e-07 ± 1.9e-08 m3/mol
[2]; x2 = 0.2908
  excess molar volume: 9.49e-07 ± 2e-08 m3/mol
[2]; x2 = 0.3479
  excess molar volume: 1.051e-06 ± 2e-08 m3/mol
[2]; x2 = 0.4046
  excess molar volume: 1.133e-06 ± 2.1e-08 m3/mol
[2]; x2 = 0.4573
  excess molar volume: 1.159e-06 ± 2.1e-08 m3/mol
[2]; x2 = 0.51
  excess molar volume: 1.176e-06 ± 2.1e-08 m3/mol
[2]; x2 = 0.5596
  excess molar volume: 1.185e-06 ± 2.1e-08 m3/mol
[2]; x2 = 0.6019
  excess molar volume: 1.165e-06 ± 2.1e-08 m3/mol
[2]; x2 = 0.6553
  excess molar volume: 1.125e-06 ± 2.1e-08 m3/mol
[2]; x2 = 0.6903
  excess molar volume: 1.077e-06 ± 2.1e-08 m3/mol
[2]; x2 = 0.7637
  excess molar volume: 9.27e-07 ± 2e-08 m3/mol
[2]; x2 = 0.8486
  excess molar volume: 6.89e-07 ± 1.9e-08 m3/mol
[2]; x2 = 0.9127
  excess molar volume: 4.52e-07 ± 1.8e-08 m3/mol
[2]; x2 = 0.9592
  excess molar volume: 2.26e-07 ± 1.7e-08 m3/mol
